15 compounds from ChEMBL document CHEMBL3526145, “Metabolism, excretion, and pharmacokinetics of ((3,3-difluoropyrrolidin-1-yl)((2S,4S)-4-(4-(pyrimidin-2-yl)piperazin-1-yl)pyrrolidin-2-yl)methanone, a dipeptidyl peptidase inhibitor, in rat, dog and human” (Drug Metab Dispos, 2012) can be followed below.

The test system of data set [1] is Plasma. Description: Drug level in beagle dog plasma treated with [14C]PF-00734200 at 5 mg/kg, po administered as single dose by LC-MS/MS method. Set-up: dose 5 mg/kg, route oral. The following applies: in vivo. Format: ADME, organism-based, Canis lupus familiaris.
The nature of data set [2]: Retention time of the compound by HPLC method. Format: physicochemical.
Data set [3] can be described thus: Drug level in urine of beagle dog treated with [14C]PF-00734200 at 5 mg/kg, po administered as single dose by LC-MS/MS method. Format: ADME, organism-based, Canis lupus familiaris. On the set-up: dose 5 mg/kg, route oral. Conditions: in vivo.
Data set [4] in a line: Drug level in bile of bile duct-cannulated Sprague-Dawley rat treated with [14C]PF-00734200 at 5 mg/kg, po administered as single dose by LC-MS/MS method. On the set-up: dose 5 mg/kg, route oral. Conditions: in vivo. Type of data set: ADME, organism-based.
The nature of data set [5]: Drug level in urine of Sprague-Dawley rat treated with [14C]PF-00734200 at 5 mg/kg, po administered as single dose by LC-MS/MS method. On the set-up: dose 5 mg/kg, route oral. Conditions: in vivo. Format: ADME, organism-based.
The nature of data set [6]: Drug level in feces of Sprague-Dawley rat treated with [14C]PF-00734200 at 5 mg/kg, po administered as single dose by LC-MS/MS method. Type of data set: ADME, organism-based. On the set-up: dose 5 mg/kg, route oral. Conditions: in vivo.
A further data set deals with Canis familiaris. Description: Total drug level in beagle dog treated with [14C]PF-00734200 assessed as total radio activity at 5 mg/kg, po administered as single dose […]. Format: ADME, organism-based, Canis lupus familiaris. Set-up: dose 5 mg/kg, route oral. Conditions: in vivo.
The nature of data set [7]: Drug level in urine of human treated with [14C]PF-00734200 at […], po administered as single dose by LC-MS/MS method. Type of data set: ADME, organism-based. The following applies: in vivo. Set-up: route oral.
A short description of data set [8]: Drug level in feces of human treated with [14C]PF-00734200 at […], po administered as single dose by LC-MS/MS method. Format: ADME, organism-based. On the set-up: route oral. The following applies: in vivo.
In data set [9] the test system is Homo sapiens. The experiment in a line: Total drug level in human treated with [14C]PF-00734200 assessed as total radio activity at […], po administered as single dose […]. Type of data set: ADME, organism-based. Set-up: route oral. The following applies: in vivo.
The test system of data set [10] is Plasma. The experiment in a line: Drug level in Sprague-Dawley rat plasma treated with [14C]PF-00734200 at 5 mg/kg, po administered as single dose by LC-MS/MS method. Format: ADME, organism-based. On the set-up: dose 5 mg/kg, route oral. The following applies: in vivo.
A further data set deals with Rattus norvegicus. The experiment in a line: Total drug level in Sprague-Dawley rat treated with [14C]PF-00734200 assessed as total radio activity at 5 mg/kg, po administered as single dose […]. Format: ADME, organism-based. On the set-up: dose 5 mg/kg, route oral. The following applies: in vivo.
The test system of a further data set is Serum. The experiment in a line: Drug level in human serum treated with [14C]PF-00734200 at […], po administered as single dose by LC-MS/MS method. Type of data set: ADME, organism-based. Set-up: route oral. Conditions: in vivo.
Data set [11] can be described thus: Drug level in feces of beagle dog treated with [14C]PF-00734200 at 5 mg/kg, po administered as single dose by LC-MS/MS method. Type of data set: ADME, organism-based, Canis lupus familiaris. Conditions: in vivo. On the set-up: dose 5 mg/kg, route oral.
For data set [12], the target named is T1, Cytochrome P450 2D6 (Homo sapiens, UniProt P10635). The experiment in a line: Drug level assessed as human CYP2D6-mediated compound formation from PF-00734200 by LC-MS/MS method. Type of data set: ADME. Conditions: recombinant enzyme.
T1 sequence (P10635 whole entry): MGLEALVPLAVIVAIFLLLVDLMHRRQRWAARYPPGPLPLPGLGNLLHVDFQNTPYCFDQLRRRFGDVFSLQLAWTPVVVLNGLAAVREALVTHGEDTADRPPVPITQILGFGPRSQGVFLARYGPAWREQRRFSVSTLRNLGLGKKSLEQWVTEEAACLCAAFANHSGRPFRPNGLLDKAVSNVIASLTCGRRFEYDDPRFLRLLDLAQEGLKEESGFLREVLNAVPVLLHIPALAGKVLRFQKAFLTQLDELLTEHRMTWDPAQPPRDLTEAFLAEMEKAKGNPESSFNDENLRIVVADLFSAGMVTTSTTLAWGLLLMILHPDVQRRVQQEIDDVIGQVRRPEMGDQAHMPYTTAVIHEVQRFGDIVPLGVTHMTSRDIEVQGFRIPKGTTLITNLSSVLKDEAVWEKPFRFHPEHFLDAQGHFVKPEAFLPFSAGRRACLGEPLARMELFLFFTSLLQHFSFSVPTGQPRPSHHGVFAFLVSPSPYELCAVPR
The target in data set [13] is T2, Cytochrome P450 3A4 (Homo sapiens, UniProt P08684). Description: Drug level assessed as human CYP3A4-mediated compound formation from PF-00734200 by LC-MS/MS method. Type of data set: ADME. The following applies: recombinant enzyme.
T2 sequence (P08684 whole entry): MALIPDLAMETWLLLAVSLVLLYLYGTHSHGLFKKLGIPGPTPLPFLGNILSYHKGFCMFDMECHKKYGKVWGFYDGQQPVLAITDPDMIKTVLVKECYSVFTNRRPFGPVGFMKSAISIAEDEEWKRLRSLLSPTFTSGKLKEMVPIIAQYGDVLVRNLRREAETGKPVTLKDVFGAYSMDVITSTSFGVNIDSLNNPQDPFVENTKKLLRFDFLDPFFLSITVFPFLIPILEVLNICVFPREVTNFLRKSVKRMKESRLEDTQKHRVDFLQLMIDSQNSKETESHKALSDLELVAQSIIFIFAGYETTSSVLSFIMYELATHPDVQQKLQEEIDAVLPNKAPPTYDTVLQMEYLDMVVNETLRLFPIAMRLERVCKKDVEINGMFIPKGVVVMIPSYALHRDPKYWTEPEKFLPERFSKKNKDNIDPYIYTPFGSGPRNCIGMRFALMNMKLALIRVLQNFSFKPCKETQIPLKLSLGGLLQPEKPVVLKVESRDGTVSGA
The test system of data set [14] is Homo sapiens. The experiment in a line: AUC (0 to 168 hrs) in human treated with [14C]PF-00734200 at […], po administered as single dose. On the set-up: time < 168 hr, route oral. Conditions: in vivo. Format: ADME, organism-based, Plasma.
The test system of data set [15] is Homo sapiens. The experiment in a line: AUC (0 to infinity) in human treated with [14C]PF-00734200 at […], po administered as single dose. On the set-up: route oral, time infinity. Format: ADME, organism-based, Plasma. Conditions: in vivo.
In data set [16] the test system is Homo sapiens. Description: Tmax in human treated with [14C]PF-00734200 at […], po administered as single dose. On the set-up: route oral. The following applies: in vivo. Format: ADME, organism-based.
Data set [17] relates to Homo sapiens. Description: Cmax in human treated with [14C]PF-00734200 at […], po administered as single dose. Type of data set: ADME, organism-based. On the set-up: route oral. Conditions: in vivo.
For data set [18], the system named is Homo sapiens. Description: Elimination half life in human treated with [14C]PF-00734200 at […], po administered as single dose. Type of data set: ADME, organism-based. Set-up: route oral. Conditions: in vivo.
In data set [19] the test system is Homo sapiens. Description: Oral clearance in human treated with [14C]PF-00734200 at […], po administered as single dose. Format: ADME, organism-based. Set-up: route oral. The following applies: in vivo.
Data set [20] addresses T1, Cytochrome P450 2D6. Description: Drug metabolism assessed as human CYP2D6-mediated metabolite (3,3-difluoropyrrolidin-1-yl){(2S,4S)-4-[4-(5-hydroxypyrimidin-2-yl)piperazin-1-yl]pyrrolidin-2-yl}methanone formation by LC-MS/MS method. Type of data set: ADME. Conditions: recombinant enzyme.
The target of data set [21] is T2, Cytochrome P450 3A4. Description: Drug metabolism assessed as human CYP3A4-mediated metabolite (3,3-difluoropyrrolidin-1-yl){(2S,4S)-4-[4-(5-hydroxypyrimidin-2-yl)piperazin-1-yl]pyrrolidin-2-yl}methanone formation by LC-MS/MS method. Type of data set: ADME. The following applies: recombinant enzyme.

SMILES strings stand for the structures.

`O=C(O)[C@H]1O[C@@H](OC(=O)N2C[C@@H](N3CCN(c4ncc(O)cn4)CC3)C[C@H]2C(=O)N2CCC(F)(F)C2)[C@H](O)[C@@H](O)[C@@H]1O`: the Drug uptake with Plasma [1] is given as 1.8%. Further, the Retention_time in [2] was 24.5 min.

`O=C([C@@H]1C[C@H](N2CCN(c3ncc(OS(=O)(=O)O)cn3)CC2)CN1)N1CCC(F)(F)C1`: the figures for the Drug uptake (in [3]; with Plasma [1]; in data set [4]) were 2.6%, 1.8% and 2.1%, respectively. This compound gave a Retention_time in data set [2] of 24.5 min.

Turning to `O=C(O)[C@@H]1C[C@H](N2CCN(c3ncccn3)CC2)CN1`, the Drug uptake in data set [5] is listed as 3.2%; in data set [6], 2.3%; in [3], 2.5%; with Canis familiaris, 2.5%; in data set [7], 1.1%; in data set [8], 1.2%. Moreover, the Drug uptake in the data set on Homo sapiens [9] was 2.3%; in the data set with Plasma [10], 8.4%; in the data set on Plasma [1], 1%; in the data set with Rattus norvegicus, 5.5%. This compound also registered a Retention_time in data set [2] of 5.6 min.

For the compound `N=C(N)N1CCN([C@H]2C[C@@H](C(=O)N3CCC(F)(F)C3)N(C=O)C2)CC1`, the Drug uptake (in [6]; in data set [7]; with Homo sapiens [9]; in the data set on Rattus norvegicus) was 0.1% throughout. For the same compound, the Retention_time in data set [2] came out at 20.1 min.

Take `O=C(O)[C@H]1O[C@@H](OC(=O)N2C[C@@H](N3CCN(c4ncccn4)CC3)C[C@H]2C(=O)N2CCC(F)(F)C2)[C@H](O)[C@@H](O)[C@@H]1O`: the Drug uptake came out at 1.6% in data set [3]; 6% in data set [7]; 6% with Homo sapiens [9]; 1.5% in the data set with Plasma [1]; 1.2% with Serum. In data set [2], this compound had a Retention_time of 28.2 min.

In the case of `O=CN1C[C@@H](N2CCN(c3ncc(O)cn3)CC2)C[C@H]1C(=O)N1CCC(F)(F)C1`, the Drug uptake (in data set [6]; with Rattus norvegicus) was 5.5% each time. In data set [2], this compound showed a Retention_time of 27.4 min.

Regarding `O=C([C@@H]1C[C@H](N2CCN(c3ncc(O)cn3)CC2)CN1)N1CCC(F)(F)C1`, the Drug uptake in data set [5] is 7.3%; in [6] it was 32.3%; in [3], 30.1%; in [11], 9%; in the data set with Canis familiaris, 39.1%; in data set [7] it was 17.9%. Further, the Drug uptake came to 2.7% in data set [8]; 20.6% with Homo sapiens [9]; 2.7% with Plasma [10]; 13.7% with Plasma [1]; 39.6% in the data set on Rattus norvegicus; 4% in the data set on Serum. Moreover, the Drug metabolism result on Cytochrome P450 2D6 [12] and at Cytochrome P450 3A4 [13] was “metabolite_detected” each time. In [2], this compound yielded a Retention_time of 25.5 min.

As to `O=C([C@@H]1C[C@H](N2CCN(c3ncccn3)CC2)CN1[C@@H]1O[C@H](CO)[C@@H](O)[C@H](O)[C@H]1O)N1CCC(F)(F)C1`, the Drug uptake (in data set [7]; in the data set with Homo sapiens [9]) was 0.9% each time. In data set [2], the Retention_time amounted to 29.2 min.

The compound `O=C([C@@H]1C[C@H](N2CCN(c3ncc(O)cn3)CC2)CN1[C@@H]1O[C@H](CO)[C@@H](O)[C@H](O)[C@H]1O)N1CCC(F)(F)C1` registered a Retention_time in data set [2] of 28.2 min.

`NC(=O)N1C[C@@H](N2CCN(c3ncc(O)cn3)CC2)C[C@H]1C(=O)N1CCC(F)(F)C1`: in [3], the Drug uptake came out at 0.6%. Also, the Retention_time in data set [2] was found to be 26 min.

Consider `N=C(N)N1CCN([C@@H]2CN[C@H](C(=O)N3CCC(F)(F)C3)C2)CC1`, for which the Drug uptake in data set [5] is given as 3.1%; in data set [6], 17.8%; in [3] it was 1.2%; in [11], 4.6%; in the data set on Canis familiaris it was 5.8%; in [8], 3%. For the same compound, the Drug uptake in the data set on Homo sapiens [9] is recorded as 3%; with Plasma [10], 2.6%; in the data set with Plasma [1], 0.8%; in the data set on Rattus norvegicus it was 20.9%; in data set [4] it was 7.3%. In data set [2], the Retention_time came to 3 min.

Take `NC(=O)N1C[C@@H](N2CCN(c3ncccn3)CC2)C[C@H]1C(=O)N1CCC(F)(F)C1`: the Drug uptake (in data set [7]; in the data set with Homo sapiens [9]) was 1% throughout. Further, in [2], the Retention_time is on record as 30.2 min.

For the compound `O=C([C@@H]1C[C@H](N2CCN(c3ncccn3)CC2)CN1)N1CCC(F)(F)C1` [GOSOGLIPTIN], the Drug uptake in data set [5] is recorded as 11%; in [6], 1.1%; in [3], 25.6%; in data set [11], 1.8%; with Canis familiaris, 27.4%; in data set [7] it was 48.5%. The Drug uptake in data set [8] is given as 0.4%; in the data set on Homo sapiens [9], 48.9%; with Plasma [10], 79.9%; with Plasma [1], 80.1%; in the data set on Rattus norvegicus, 12.1%; with Serum, 94.5%. For the same compound, the figures for the area under the curve (AUC) with Homo sapiens [14] and in the data set on Homo sapiens [15] were 2560 ng·h/mL and 2660 ng·h/mL, respectively. Besides, the time to peak (Tmax) with Homo sapiens [16] is 1 h. This compound had a Cmax in the data set on Homo sapiens [17] of 241.3 ng/mL. Further, in the data set with Homo sapiens [18], the “beta t1/2” value is 63.5 h. Further, the CL/F with Homo sapiens [19] came to 125.3 mL/min. Further, the Drug metabolism result at Cytochrome P450 2D6 [20] and on Cytochrome P450 3A4 [21] was “metabolite_detected” throughout.

Regarding `O=C(O)[C@H]1O[C@@H](Oc2cnc(N3CCN([C@@H]4CN[C@H](C(=O)N5CCC(F)(F)C5)C4)CC3)nc2)[C@H](O)[C@@H](O)[C@@H]1O`, the Drug uptake in data set [5] turned out to be 2.9%; in data set [3], 1%; in the data set on Canis familiaris, 1%; with Plasma [10], 4.7%; with Plasma [1], 0.4%; in the data set on Rattus norvegicus, 2.9%. In addition, the Drug uptake in [4] is 50.4%. Also, the Retention_time in [2] was 14.3 min.

As for `c1cnc(N2CCNCC2)nc1` [2-PIPERAZIN-1-YL-PYRIMIDINE], the Drug uptake worked out at 1.4% in data set [5]; 0.9% in [3]; 0.9% in the data set on Canis familiaris; 1.7% with Plasma [10]; 0.7% in the data set on Plasma [1]; 1.4% in the data set with Rattus norvegicus. In addition, in data set [2], the Retention_time amounted to 6.5 min.

What is called AUC is the area under the concentration-time curve, a measure of exposure. A low value points to less exposure. The Tmax is the time from dosing to the highest level. For orientation: Cmax means the highest concentration seen after dosing. Broadly, the CL/F is clearance divided by bioavailability, as obtained after extravascular dosing.
